Residues, ends and D or L forms follow the SMILES beside them.
Key:
Caco-2 cells = assay: Example 25: mitochondrial membrane potential after t-BHP (TMRM, CLSM); type: cell-based, human; details: t-BHP 1 mM, 4 hours
Protocol: Caco-2 cells will be treated with t-BHP (1 mM) alone or in the presence of peptide conjugates (0.1 μM); aromatic-cationic peptides (an equivalent molar dose of aromatic-cationic peptide based on the concentration of the aromatic-cationic peptide administered in the peptide conjugate treatment group); SPN10(s) (an equivalent molar dose of SPN10 based on the concentration of SPN10 administered in the peptide conjugate treatment group); or SPN10(s) in combination with aromatic-cationic peptides (e.g., an equivalent molar dose of SPN10 based on the concentration of SPN10 administered in the peptide conjugate treatment group and an equivalent molar dose of aromatic-cationic peptide based on the concentration of aromatic-cationic peptide administered in the peptide conjugate treatment group) for 4 hours, and then incubated with TMRM and examined under CLSM.

[1] = tested on: isolated mouse liver mitochondria; assay: Example 10: uptake into isolated mitochondria; type: in vitro ADME
Protocol: To isolate mitochondria from mouse liver, mice will be sacrificed by decapitation. The liver will be removed and rapidly placed into chilled liver homogenization medium. The liver will be finely minced using scissors and then homogenized by hand using a glass homogenizer.
The homogenate will be centrifuged for 10 minutes at 1000×g at 4° C. The supernatant will be aspirated and transferred to polycarbonate tubes and centrifuged again for 10 minutes at 3000×g, 4° C. The resulting supernatant will be removed, and the fatty lipids on the side-wall of the tube will be removed.
The pellet will be resuspended in liver homogenate medium and the homogenization repeated twice. The final purified mitochondrial pellet will be resuspended in medium. Protein concentration in the mitochondrial preparation will be determined by the Bradford procedure.
Approximately 1.5 mg mitochondria in 400 μL buffer will be incubated with [^3H] peptide conjugates; [^3H] aromatic-cationic peptides (an equivalent molar dose of aromatic-cationic peptide based on the concentration of the aromatic-cationic peptide administered in the peptide conjugate treatment group); [^3H] […] The mitochondria will then be centrifuged and the amount of radioactivity will be determined in the mitochondrial fraction and buffer fraction. […]

[2] = tested on: mouse peritoneal macrophages; assay: Example 1: oxLDL-induced CD36 expression and foam cell formation; type: cell-based
Protocol: Other controls will include CD36 expression from mouse heart (H) and macrophages obtained from CD36 knockout mice (KO). The amount of CD36 protein will be normalized to β-actin.
Incubation of macrophages with oxLDL for 48 hours is also anticipated to increase foam cell formation. Foam cell will be visualized by oil red O, which stains lipid droplets red.
Incubation of macrophages with oxLDL is anticipated to increase the percentage of apoptotic cells.

isolated mitochondria = assay: Example 12: MPT induced by Ca^2+ overload and 3NP in isolated mitochondria
Protocol: 3-Nitropropionic acid (3NP) is an irreversible inhibitor of succinate dehydrogenase in complex II of the electron transport chain. It is anticipated that the addition of 3NP (1 mM) to isolated mitochondria will cause the loss of mitochondrial membrane potential and the onset of MPT.

[3] = tested on: Isolated guinea pig hearts; assay: Example 15: organ preservation in cardioplegic solution; details: added to cardioplegic solution; 90 minutes ischemia, 60 minutes reperfusion
Protocol: Isolated guinea pig hearts will be perfused in a retrograde fashion with an oxygenated Krebs-Henseleit solution at 34° C. After 30 minutes of stabilization, the hearts will be perfused with a cardioplegic solution (CPS; St. Thomas) alone or in the presence of peptide conjugates (100 nM); aromatic-cationic peptides (an equivalent molar dose of aromatic-cationic peptide based on the concentration of the aromatic-cationic peptide administered in the peptide conjugate treatment group); SPN10(s) (an equivalent molar dose of SPN10 based on the concentration of SPN10 administered in the peptide conjugate treatment group); or SPN10(s) in combination with aromatic-cationic peptides (e.g., an equivalent molar dose of SPN10 based on the concentration of SPN10 administered in the peptide conjugate treatment group and an equivalent molar dose of aromatic-cationic peptide based on the concentration of aromatic-cationic peptide administered in the peptide conjugate treatment group) for 3 minutes. Global ischemia will then be induced by complete interruption of coronary flow and maintained for 90 minutes. Reperfusion will be performed for 60 minutes with oxygenated Krebs-Henseleit solution. Contractile force, heart rate, and coronary flow will be monitored continuously throughout the procedure.

`N=C(N)NCCC[C@H](NC(=O)[C@@H](N)Cc1c[nH]c2ccccc12)C(=O)N[C@@H](Cc1c[nH]c2ccccc12)C(=O)N[C@@H](CCCCN)C(N)=O` [SPN10, H-L-Trp-L-Arg-L-Trp-L-Lys-NH2] (H-WRWK-NH2) was tested, and the “mitochondrial depolarization caused by t-BHP” value (Caco-2 cells) was “protect against mitochondrial depolarization”, the “concentration in mitochondria compared with buffer” value ([1]; 5-30 minutes at 37° C.) was “higher than in the buffer” and the “amount associated with the mitochondrial pellet after FCCP” value ([1]; FCCP) was “decrease the amount”. For the same compound, the “percentage of apoptotic cells induced by oxLDL” value [2] was “significantly reduce the percentage of apoptotic cells”, the “up-regulation of CD36 protein levels by oxLDL” value ([2]; 25 μg/mL oxLDL, 48 hours) was “significantly inhibit the up-regulation of CD36 protein levels” and the “CD36 protein levels (western blot)” value ([2]; compared to vehicle control (V)) was “significantly reduce CD36 protein levels”. For the same compound, the “oxLDL-induced up-regulation of CD36 mRNA” value ([2]; oxLDL 50 μg/mL, 48 hours) was “abolish the up-regulation of CD36”, the “oxLDL-induced foam cell formation (oil red O)” value ([2]; oxLDL, 48 hours) was “prevent oxLDL-induced foam cell formation” and the “tolerance of mitochondria to cumulative Ca^2+ challenges” value (isolated mitochondria) was “dose-dependently increase the tolerance”. For the same compound, the “onset of MPT after Ca^2+” value (isolated mitochondria; 10 μM pre-treatment for 2 minutes prior to Ca^2+) was “prevent the onset of MPT”, the “onset of MPT induced by 3NP” value (isolated mitochondria; 3NP 1 mM) was “dose-dependently delay the onset of MPT” and the “contractile function after prolonged ischemia” value [3] was “significantly enhance contractile function”.

Reference: patent US20240108740A1, “THERAPEUTIC COMPOSITIONS INCLUDING SPN10 AND USES THEREOF” (Stealth BioTherapeutics Inc., priority 2022, published 2024)
